Data from US5219825A, “Synergistic herbicidal compositions comprising herbicides which generate toxic oxygen radicals and chelating agents which inhibit their detoxification” (Yeda Research and Development Co., Ltd., priority 1986, dated 1993).

Key:
[1] = tested on: Conyza bonariensis low herbicide requiring biotype; assay: Photosynthesis (14CO2 fixation) of leaf discs removed 5 h after spray treatment; assay type: in vivo; conditions: foliar, acifluorfen 0 μM, DDC 0.5% alone, leaf discs removed 5 h after treatment, untreated control = 100
Description: (§1) Similarly, both the paraquat resistant and sensitive biotypes of Conyza bonariensis were treated with two other oxidant generating herbicides. Atrazine (of the triazine group) is the most widely used oxidant generating herbicides in agriculture. We used various dilutions of a commercial wettable powder (Atranex 50WP-Agan Chemicals) to which we added 0.5% DDC. The effects were scored 24 h later. […] We also tested to see whether acifluorfen, a nitro diphenyl ether herbicide would be synergized. It is generally agreed that light and oxygen are required for its action via oxidant damage. We sprayed a commercial formulation of acifluorfen (Blazer, Rohm and Haas) to which were added 0.25% Tween-20 detergent, with and without DDC. The effects were scored 24 h later.
^b photosynthesis (^14 CO2 fixation) was used as an
additional measurement of phytotoxicity. Leaf discs were removed 5 h afte
treatment for measurement

[2] = tested on: Conyza bonariensis paraquat tolerant (high herbicide requiring) biotype; assay: Malonyldialdehyde in tissue (lipoxidation, membrane damage) after spraying; assay type: in vivo; conditions: atrazine 0 μM; DDC 0.5% alone; high herbicide requiring biotype; untreated control = 100
Description: (§2) Seeds of two biotypes of Conyza bonariensis (L.) Cronq. (synonym C. linifolia) were obtained from Egypt. The paraquat sensitive biotype was gathered near Alexendria and seeds of the resistant type from the Tahrir irrigation district. They were obtained from Dr. Martin Parham in England. Seeds were germinated in a growth room with a 14 h light period at 25° C. Plants were transferred out of doors 24 h before being sprayed. The phytotoxicity of three herbicides representative of the three different modes of generating active oxygen species known at present. Commercial paraquat (Gramoxone-ICI Plant Protection Ltd) was formulated with 0.1% (w/v) Tween-20 (a non-ionic surfactant) for spraying. The response to the range of 10^-5 M to 10^-2 M paraquat was measured by spraying two plants per concentration to run-off in the early morning. All plants were exposed to sunlight for at least 13 h (1300 μE.m^-2s^-1 photosynthetically active radiation (PAR) at mid day). Commercial acifluorfen (Blazer, Rohm, and Hass, Philadelphia, Pa., USA) to which was added 0.25% Tween-20 was sprayed to run-off. The response to spraying was measured as with paraquat 24 h after spraying. Commercial atrazine (Atranex 50 WP-Agan) was sprayed at various rates in 0.25% Tween 20 to run off. Fully expanded, 8 to 10 cm long leaves from plants in the rosette stage were used in all experiments. Phytotoxicity of acifluorfen and paraquat was measured as CO2 fixation 24 h later as follows: Detached leaves were placed on wet filter paper in a sealed chamber with 5μ Ci^14 C-sodium bicarbonate. Tartaric acid was remotely dripped on the sodium bicarbonate to release ^14 CO2. Leaves were illuminated with […] (PAR) for 30 min. Eighty percent acetone was added and the mixture put under strong light to photobleach pigments and evaporate the acetone. A scintillation mixture of Lumax:xylene (45:55) was added to the leaves and remaining water. The samples were counted and the data expressed as DPM.cm^-2. Area was measured with a planimeter from photocopies of the leaves made prior to photosynthesis measurements. Phytotoxicity of atrazine was measured as the elevated level of malonyldialdehyde in the tissue. Malonyldialdehyde (as measured with thiobarbituric acid according to Dodge and Gillham (Asp. Appl. Biol 11 97 (1986)) is a measurement of lipoxidation of unsaturated fatty acids, and provides an excellent estimation of damage by active oxygen species.
(§3) ^b membrane damage was measured as malonyldialdehyde release
as §1

[3] = tested on: Conyza bonariensis paraquat sensitive (low herbicide requiring) biotype; assay: as above; assay type: in vivo; conditions: atrazine 0 μM; DDC 0.5% alone; low herbicide requiring biotype; untreated control = 100
Description: as §2, §3, §1

Stellaria media = assay: Whole plant spray, visual rating; assay type: in vivo; conditions: paraquat 30 μM spray to run-off, DDC 0.75% W/V where added, scored 1 day after treatment
From the text: (§4) Seeds of Conyza bonariensis were germinated and plants cultivated as outlined in Example 1. Other species were germinated in a similar mixture and treated at 10 days.
(§5) ^a visual ratings (scored 1 day after treatment): 0 no damage to
(§6) slight burn; 1 moderate burn (may regenerate); 2 severe burn (will die)

Sinapsis arvense = assay: Whole plant spray, visual rating; assay type: in vivo; conditions: paraquat 30 μM spray to run-off, DDC 0.75% W/V where added, scored 1 day after treatment
From the text: as §4, §5, §6

Beans = assay: Whole plant spray, visual rating; assay type: in vivo; conditions: paraquat 100 μM spray to run-off, DDC 0.75% W/V where added, scored 1 day after treatment
From the text: as §4, §5, §6

[4] = tested on: Conyza bonariensis paraquat tolerant biotype; assay: Phytotoxicity measured as 14CO2 fixation 24 h after spraying; assay type: in vivo; conditions: for % photosynthesis inhibition: tolerant biotype
Description: as §2

[5] = tested on: Conyza bonariensis paraquat sensitive biotype; assay: as above; assay type: in vivo; conditions: for % photosynthesis inhibition: sensitive biotype
Description: as §2

bean leaf discs = assay: Bean leaf disc bleaching assay; assay type: cell-based; conditions: paraquat 20 μM; chelator 0.01% w/v where added; 5 h at 450 μEin.m^-2 s^-1
Description: We used this bean leaf disc system to ascertain the potential of chelators to synergize a large variety of phytotoxicants purported to act by generating active oxygen species in the light.
Bean discs were incubated on solutions containing the above mixtures for 5 h at 450 μEin.m^-2 s^-1 and the chlorophyll remaining in the leaves was assayed.

[6] = tested on: Biotypes of certain weed species; conditions: cited from earlier work
weed species = conditions: cited from earlier work
[7] = herbicide molar conc. 3 × 10^-4
[8] = herbicide molar conc. 3.2 × 10^-5

CCN(CC)C(=S)[S-].[Na+] [DDC, Sodium diethyldithiocarbamate]
activity at 0.5 % [1]: 92% | membrane damage (malonyldialdehyde release) [2]: 112 | membrane damage (malonyldialdehyde release) [3]: 125

C[n+]1ccc(-c2cc[n+](C)cc2)cc1 [paraquat, 1,1'-dimethyl-4-4'bipyridium ion]
visual rating (Stellaria media): 0.5 | visual rating (Sinapsis arvense): 0.5 | visual rating (Beans): 1.5 | IC100 ([4]; Conyza bonariensis, 24 h, resistant biotype, read-out: concentration at which CO2 assimilation ceased): 1000 µM | % photosynthesis inhibition ([4]; herbicide molar conc. 3 × 10^-3): 100% | % photosynthesis inhibition [4, 7]: 48% | % photosynthesis inhibition [4, 8]: 0% | % photosynthesis inhibition ([4]; herbicide molar conc. 10^-3): 97% | % photosynthesis inhibition ([4]; herbicide molar conc. 10^-4): 0% | % photosynthesis inhibition ([4]; herbicide molar conc. 10^-5): 0% | IC100 ([5]; Conyza bonariensis, 24 h, wild biotype, read-out: concentration at which CO2 assimilation ceased): 10 µM | % photosynthesis inhibition [5, 7]: 100% | % photosynthesis inhibition [5, 8]: 100% | % photosynthesis inhibition ([5]; herbicide molar conc. 10^-3): 100% | % photosynthesis inhibition ([5]; herbicide molar conc. 10^-4): 100% | % photosynthesis inhibition ([5]; herbicide molar conc. 10^-5, spray to run-off): 95% | chlorophyll - % of control (bean leaf discs): 52 % of control | rate that does not kill resistant biotypes ([6]; biotypes that have evolved resistance to paraquat): > 16 kg/ha | rate that controls the sensitive biotype ([6]; sensitive biotype of the same species): 1 kg/ha | rate at which species are killed (weed species; Bromis inermis, Amaranthus retroflexus and wheat): 0.01 kg/ha | rate required for good control (weed species; Digitaria, Chenopodium album, Sinapis arvensis and Galium aparine): 3 kg/ha
